Data: ChEMBL document CHEMBL1201862, “PubChem BioAssay data set” (2004)
The source made the active and inactive calls.

Tests used:
[1] = target: Lysosomal acid glucosylceramidase (Homo sapiens, UniProt P04062); experiment: Dose response cell-based high throughput screening assay to identify enhancers of beta-glucosidase activity. [Related pubchem assays: 784 ]; assay type: functional
Aspartyl aminopeptidase = target: T1, Aspartyl aminopeptidase (Plasmodium falciparum 3D7, UniProt Q8I2J3)
T1 sequence (Q8I2J3 whole entry): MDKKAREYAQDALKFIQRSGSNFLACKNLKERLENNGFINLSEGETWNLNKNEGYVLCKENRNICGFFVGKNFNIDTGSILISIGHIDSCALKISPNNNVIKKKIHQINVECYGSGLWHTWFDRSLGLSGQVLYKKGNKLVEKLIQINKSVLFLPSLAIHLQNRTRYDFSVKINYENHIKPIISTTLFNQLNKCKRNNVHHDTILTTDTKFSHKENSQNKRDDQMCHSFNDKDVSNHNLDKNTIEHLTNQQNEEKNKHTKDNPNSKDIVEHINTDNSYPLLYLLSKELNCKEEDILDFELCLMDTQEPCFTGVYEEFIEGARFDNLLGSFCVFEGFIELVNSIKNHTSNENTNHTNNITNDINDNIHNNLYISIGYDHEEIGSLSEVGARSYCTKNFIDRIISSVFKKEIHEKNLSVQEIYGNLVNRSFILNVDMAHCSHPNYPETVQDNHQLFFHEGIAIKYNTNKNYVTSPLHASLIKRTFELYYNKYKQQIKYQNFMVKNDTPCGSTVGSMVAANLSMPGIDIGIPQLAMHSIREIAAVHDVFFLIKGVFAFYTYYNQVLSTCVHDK

Procathepsin L = Procathepsin L (Homo sapiens, UniProt P07711)
Chain of Procathepsin L (P07711 whole entry): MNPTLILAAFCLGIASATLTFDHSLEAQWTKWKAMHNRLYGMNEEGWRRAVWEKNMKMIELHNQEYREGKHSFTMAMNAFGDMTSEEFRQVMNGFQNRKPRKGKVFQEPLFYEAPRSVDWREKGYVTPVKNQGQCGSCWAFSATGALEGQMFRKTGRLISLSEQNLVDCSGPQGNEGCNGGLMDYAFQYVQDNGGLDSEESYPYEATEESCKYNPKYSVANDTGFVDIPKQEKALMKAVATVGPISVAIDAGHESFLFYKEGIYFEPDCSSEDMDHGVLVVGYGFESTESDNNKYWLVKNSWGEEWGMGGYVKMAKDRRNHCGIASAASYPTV

Cytochrome P450 2D6 = Cytochrome P450 2D6 (Homo sapiens, UniProt P10635); experiment: qHTS Assay for Inhibitors and Substrates of Cytochrome P450 2D6. [Related pubchem assays: 410 ]; assay type: ADME; settings: read-out: Potency
Chain of Cytochrome P450 2D6 (P10635 whole entry): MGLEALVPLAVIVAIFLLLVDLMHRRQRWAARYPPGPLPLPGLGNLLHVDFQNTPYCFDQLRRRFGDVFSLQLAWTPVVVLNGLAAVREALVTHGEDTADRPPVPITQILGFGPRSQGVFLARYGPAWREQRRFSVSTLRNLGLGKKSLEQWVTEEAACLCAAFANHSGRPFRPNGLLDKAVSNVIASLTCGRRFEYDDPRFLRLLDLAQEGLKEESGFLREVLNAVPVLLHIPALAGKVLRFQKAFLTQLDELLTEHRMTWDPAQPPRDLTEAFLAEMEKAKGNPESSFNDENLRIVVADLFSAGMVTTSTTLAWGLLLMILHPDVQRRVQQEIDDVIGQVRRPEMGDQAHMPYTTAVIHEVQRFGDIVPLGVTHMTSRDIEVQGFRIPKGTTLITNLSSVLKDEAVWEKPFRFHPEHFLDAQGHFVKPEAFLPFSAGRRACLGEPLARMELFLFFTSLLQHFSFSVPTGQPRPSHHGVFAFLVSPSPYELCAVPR

[2] = HEp-2 cell cytotoxicity, dose response, cytotoxicity control for RSV inhibitor project, HTS (AID 2410); assay type: functional; settings: human respiratory syncytial virus
[3] = target: E3 ubiquitin-protein ligase Mdm2 (Homo sapiens, UniProt Q00987); experiment: enhancers of MDM2-luciferase reporter signal, concentration-effect titration, project on inhibitors of MDM2 ubiquitin ligase, cellular assay, luminescent readout, 384-well plate format (AID 1394); assay type: functional;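 also: MDM2 E3 inhibitors raise luminescence so EC50 is for signal enhancement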
Chain of E3 ubiquitin-protein ligase Mdm2 (Q00987 whole entry): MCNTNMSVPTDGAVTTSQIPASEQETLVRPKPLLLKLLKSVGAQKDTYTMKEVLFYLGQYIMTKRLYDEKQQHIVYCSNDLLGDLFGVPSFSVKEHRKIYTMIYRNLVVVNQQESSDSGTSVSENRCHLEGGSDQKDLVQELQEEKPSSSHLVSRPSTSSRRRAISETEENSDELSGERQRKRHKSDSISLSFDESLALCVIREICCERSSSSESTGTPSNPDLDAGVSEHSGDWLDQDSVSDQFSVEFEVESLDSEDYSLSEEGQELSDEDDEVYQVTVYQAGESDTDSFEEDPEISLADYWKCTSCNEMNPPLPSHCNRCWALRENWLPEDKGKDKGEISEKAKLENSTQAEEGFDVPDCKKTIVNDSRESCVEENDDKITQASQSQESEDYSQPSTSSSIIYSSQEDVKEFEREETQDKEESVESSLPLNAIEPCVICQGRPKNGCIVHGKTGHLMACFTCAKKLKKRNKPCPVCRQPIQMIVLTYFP

SUMO-activating enzyme [4] = target: T2, SUMO-activating enzyme (Homo sapiens, UniProt Q9UBT2); experiment: SUMOylation inhibitor hit validation, confirmation, SUMOylation inhibitor project, biochemical, AlphaScreen (AID 2018); assay type: functional
T2 sequence (Q9UBE0 whole entry): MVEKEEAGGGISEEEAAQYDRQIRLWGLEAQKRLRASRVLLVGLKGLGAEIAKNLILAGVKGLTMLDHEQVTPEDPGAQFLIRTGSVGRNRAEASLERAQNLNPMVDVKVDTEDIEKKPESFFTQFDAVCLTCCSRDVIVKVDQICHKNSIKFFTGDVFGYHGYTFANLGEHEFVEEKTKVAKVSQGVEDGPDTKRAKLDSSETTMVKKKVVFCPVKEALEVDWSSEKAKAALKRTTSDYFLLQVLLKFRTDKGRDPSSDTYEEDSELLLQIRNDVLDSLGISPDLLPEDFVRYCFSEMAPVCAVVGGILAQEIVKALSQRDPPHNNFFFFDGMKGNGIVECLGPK
T2 sequence (Q9UBT2 whole entry): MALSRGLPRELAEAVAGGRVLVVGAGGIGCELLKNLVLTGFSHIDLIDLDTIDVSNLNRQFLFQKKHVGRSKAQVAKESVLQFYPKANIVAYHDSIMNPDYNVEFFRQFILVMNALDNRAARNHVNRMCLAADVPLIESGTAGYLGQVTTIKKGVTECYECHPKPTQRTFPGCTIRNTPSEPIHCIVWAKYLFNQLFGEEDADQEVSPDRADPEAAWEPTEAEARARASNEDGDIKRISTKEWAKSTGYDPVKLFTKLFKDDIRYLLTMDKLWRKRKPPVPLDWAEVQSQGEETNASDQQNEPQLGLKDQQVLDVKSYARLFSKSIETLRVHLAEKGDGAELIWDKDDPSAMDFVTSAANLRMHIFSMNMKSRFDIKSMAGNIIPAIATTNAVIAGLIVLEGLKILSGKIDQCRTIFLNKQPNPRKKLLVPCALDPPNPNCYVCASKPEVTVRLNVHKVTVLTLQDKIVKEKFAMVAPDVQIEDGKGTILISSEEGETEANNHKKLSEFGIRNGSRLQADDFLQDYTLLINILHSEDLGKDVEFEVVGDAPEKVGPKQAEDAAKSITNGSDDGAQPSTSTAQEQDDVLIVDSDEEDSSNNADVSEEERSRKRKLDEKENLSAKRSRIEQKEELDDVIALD

SUMO-activating enzyme [5] = target: T2, SUMO-activating enzyme; experiment: inhibitors of in vitro SUMOylation cascade, primary screen, biochemical, HTRF, uHTS (AID 2006); assay type: protein-complex assay
[6] = microbe, parasite or virus in culture; assay type: functional; settings: Mycobacterium tuberculosis
Hexokinase HKDC1 = target: T3, Hexokinase HKDC1 (Homo sapiens, UniProt Q2TB90); experiment: HKDC1 hexokinase inhibitors, dose response, biochemical, W721R variant (AID 504729); assay type: functional
T3 sequence (Q2TB90 whole entry): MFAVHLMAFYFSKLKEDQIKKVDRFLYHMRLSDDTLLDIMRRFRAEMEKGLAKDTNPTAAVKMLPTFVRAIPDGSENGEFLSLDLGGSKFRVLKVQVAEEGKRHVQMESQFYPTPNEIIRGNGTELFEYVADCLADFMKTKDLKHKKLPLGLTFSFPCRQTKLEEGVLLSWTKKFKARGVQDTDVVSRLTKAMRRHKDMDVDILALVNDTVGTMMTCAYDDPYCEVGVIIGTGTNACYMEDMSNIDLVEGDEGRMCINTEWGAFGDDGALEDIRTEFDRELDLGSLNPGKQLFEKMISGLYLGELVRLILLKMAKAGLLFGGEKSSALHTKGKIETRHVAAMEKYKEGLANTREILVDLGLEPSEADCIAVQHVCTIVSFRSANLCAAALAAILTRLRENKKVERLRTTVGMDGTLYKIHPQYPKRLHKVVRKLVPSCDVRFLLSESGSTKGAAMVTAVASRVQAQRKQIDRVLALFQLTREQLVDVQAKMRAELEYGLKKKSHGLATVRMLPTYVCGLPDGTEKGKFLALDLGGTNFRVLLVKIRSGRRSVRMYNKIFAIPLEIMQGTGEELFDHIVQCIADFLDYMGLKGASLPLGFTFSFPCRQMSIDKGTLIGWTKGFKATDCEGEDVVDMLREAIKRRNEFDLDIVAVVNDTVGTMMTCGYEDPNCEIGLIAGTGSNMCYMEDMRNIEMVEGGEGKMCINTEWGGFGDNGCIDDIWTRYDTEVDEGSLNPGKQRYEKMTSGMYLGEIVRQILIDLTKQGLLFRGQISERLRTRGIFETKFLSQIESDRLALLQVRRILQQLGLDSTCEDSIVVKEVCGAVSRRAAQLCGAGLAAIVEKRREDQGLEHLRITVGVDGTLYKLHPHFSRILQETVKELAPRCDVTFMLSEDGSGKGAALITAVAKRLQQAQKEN

Chain of Lysosomal acid glucosylceramidase (P04062 whole entry): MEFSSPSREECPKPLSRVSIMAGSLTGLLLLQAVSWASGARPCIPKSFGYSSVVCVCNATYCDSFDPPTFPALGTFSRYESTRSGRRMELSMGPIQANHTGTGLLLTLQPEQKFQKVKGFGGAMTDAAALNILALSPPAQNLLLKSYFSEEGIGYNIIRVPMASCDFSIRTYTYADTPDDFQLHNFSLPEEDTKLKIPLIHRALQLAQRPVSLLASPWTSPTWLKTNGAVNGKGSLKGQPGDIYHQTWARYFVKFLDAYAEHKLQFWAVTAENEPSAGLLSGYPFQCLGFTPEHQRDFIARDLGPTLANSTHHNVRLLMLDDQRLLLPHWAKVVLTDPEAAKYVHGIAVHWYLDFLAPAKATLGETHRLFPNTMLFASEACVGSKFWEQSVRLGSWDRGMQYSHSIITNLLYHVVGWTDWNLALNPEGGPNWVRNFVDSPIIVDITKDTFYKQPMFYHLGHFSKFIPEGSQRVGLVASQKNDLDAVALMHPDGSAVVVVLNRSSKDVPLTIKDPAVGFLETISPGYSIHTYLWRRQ

## CCCCNC(=O)C1CCCN1C(=O)Nc1cccc(OC)c1 (stereo not given)
[1]
  EC50: > 50 µM (not active)

## CN1C(=O)N(c2cccc3ccccc23)C(n2cncn2)C1(C)C (stereo not given)
Aspartyl aminopeptidase
  IC50: 1.8 µM (active)
Procathepsin L
  IC50: > 59.6 µM (not active)

## C=C(C)C(O)C(CC/C=C(\C)C(=O)OCC)OC (stereo not given)
Cytochrome P450 2D6
  AC50: 3.16 µM (inconclusive)

## COc1cc(NC(=O)c2cnc(N)s2)cc(C(=O)Nc2cccc(C(F)(F)F)c2)c1
[2]
  CC50: 23.6 µM (active)
[3]
  EC50: 22.9 µM (not active)
SUMO-activating enzyme [4]
  IC50: 10.8 µM (active)
SUMO-activating enzyme [5]
  IC50: 34.5 µM (active)
[6]
  CC50: > 40 µM (active)
Hexokinase HKDC1
  IC50: 10.5 µM (active)
